These results are taken from article PMC7376718, “Flavonoids isolated from the South African weed Chromolaena odorata (Asteraceae) have pharmacological activity against uropathogens” (BMC Complementary Medicine and Therapies, 2020).

Test [1] concerns S. aureus, E. coli (1), E. coli (2), E. coli (3), K. pneumoniae. The experiment in a line: Mean MIC over the bacterial strains. It is filed as cell-based. The conditions noted are these: mean over the five bacterial strains of Table 3. An excerpt: (§1) The cultures used were Escherichia coli (American Type Culture Collection, ATCC 25922) labelled as 1, E. coli isolates (B1989/17 and B1962/17) labelled as 2 and 3 from equine urine, collected from the Department of Veterinary Tropical Diseases, Faculty of Veterinary Science, University of Pretoria, South Africa, Klebsiella pneumoniae isolate from commercial chicken eggs, Enterococcus faecalis (ATCC 29212), Pseudomonas aeruginosa (ATCC 27853), Staphylococcus aureus (ATCC 29213), Candida albicans from a Gouldian finch, Aspergillus fumigatus from a chicken and Cryptococcus neoformans from a cheetah. These microbial strains were maintained on MHA or SDA for bacteria and fungi respectively, while the isolates were maintained on blood agar.
(§2) Ten mg/mL of each fraction and 1 mg/mL of isolated compounds were prepared in 10% DMSO and tested against S. aureus, E. coli, K. pneumoniae, E. faecalis, P. aeruginosa, C. albicans, C. neoformans and A. fumigatus. Cultures were prepared by inoculating each microbial strain from prepared agar plates into sterilized MHB for bacterial and SDB for fungi in sterile McCartney bottles respectively. The inoculums were placed in an orbital shaker incubator. Bacterial strains were incubated at 37 °C for 18 h. Each bacterial culture was diluted in fresh MHB and the absorbance was measured at a wavelength of 560 nm using a microplate reader (Epoch Biotek). The readings were compared to a McFarland standard No. 1 correlating to approximately 3 × 10^8 cfu/mL). For fungi strains, cultures were incubated at 30 °C for 24 h (C. albicans), 72 h (C. neoformans) and 120 h (A. fumigatus) respectively. The resultant cells and spores were washed with sterile normal saline and absorbance was measured at a wavelength of 560 nm and turbidity was adjusted to a McFarland standard 1.This was further diluted in a 1:10 ratio in SDB to a turbidity of 5 × 10^5 cfu/mL. These diluted cultures (bacterial and fungi) were used for the screening following the serial microdilution method of Eloff.

In test [2] the test system is E. coli (ATCC 25922) biofilm. The test is described as follows: Biofilm inhibition, crystal violet staining. It is filed as cell-based, Escherichia coli. The conditions noted are these: planktonic (0 h) and biofilm (24 h) stages, 1 mg/mL and MIC level. The method, then: A single colony of E. coli (ATCC 25922) and S. aureus (ATCC 29213), strains were each inoculated into TSB and incubated for 24 h. The biofilm inhibition assay was carried out by adopting the method described by […] et al.. Two stages; planktonic, T0 and biofilm formation, T24 were investigated against the 24 h prepared bacterial cultures. One hundred microliters of each standardised bacterial culture (OD590 1 × 10^6 cfu/mL) was aliquoted into wells of a sterile flat bottomed 96-well microplate. Plates prepared for 24 h biofilm formation were immediately sealed with an adhesive sealer, placed in the incubator and incubated for 24 h at 37 °C. […] To the plates prepared for 0 h, the samples were added immediately. Wells containing cultures only, as well as acetone and sterile distilled water used to prepare the samples were included as controls. […] From the wells, 100 μL of the destaining solution was transferred to a new plate and semi-quantitative assessment of biofilm formation was done by measuring absorbance at 590 nm using SoftMax […] software on a microplate reader (SpectraMax M2). The mean absorbance of the samples was determined, and percentage inhibition was obtained using the equation below: percentage inhibiton=mean of culture control-mean of sample/mean of culture controlx100

The subject of test [3] is Cryptococcus neoformans from a cheetah. The test is described as follows: MIC, serial microdilution with INT. It is filed as cell-based. The conditions noted are these: C. neoformans, read-out: Minimum inhibitory concentration.
Text: as §1, §2

Test [4] has as its system E. coli (B1989/17) isolate from equine urine, E. coli (2). The experiment in a line: MIC, serial microdilution with INT. It is filed as cell-based. The conditions noted are these: Escherichia coli, read-out: Minimum inhibitory concentration.
Text: as §1, §2

The subject of test [5] is Staphylococcus aureus (ATCC 29213). The test is described as follows: MIC, serial microdilution with INT. It is filed as cell-based. The conditions noted are these: ATCC29213, S. aureus, read-out: Minimum inhibitory concentration.
Text: as §1, §2

The subject of test [6] is Klebsiella pneumoniae isolate from commercial chicken eggs. The test is described as follows: MIC, serial microdilution with INT. It is filed as cell-based. The conditions noted are these: Klebsiella pneumoniae, K. pneumoniae; read-out: Minimum inhibitory concentration.
Text: as §1, §2

The test system of test [7] is Aspergillus fumigatus from a chicken. The experiment in a line: MIC, serial microdilution with INT. The conditions noted are these: Aspergillus fumigatus, read-out: Minimum inhibitory concentration. It is filed as cell-based.
Text: as §1, §2

In test [8] the test system is E. coli (B1962/17) isolate from equine urine, E. coli (3). The experiment in a line: MIC, serial microdilution with INT. It counts as cell-based. The conditions noted are these: Escherichia coli, read-out: Minimum inhibitory concentration.
Text: as §1, §2

Test [9] has as its system Escherichia coli (ATCC 25922), E. coli (1). The test is described as follows: MIC, serial microdilution with INT. It is filed as cell-based. Conditions: Escherichia coli, ATCC25922, E. coli (1), read-out: Minimum inhibitory concentration.
Text: as §1, §2

A further test deals with Vero monkey kidney cells. The test is described as follows: in vitro. Conditions: Vero. The method, then: Different concentrations of the compounds ranging from 0.003 to 0.2 mg/mL were tested for cytotoxicity against three cell lines; Vero monkey kidney, C3A and Caco2. Vero cells were grown and maintained in MEM, supplemented with 0.1% gentamicin and 5% foetal calf serum, while Caco2 and C3A cells were grown and maintained in DMEM supplemented with 10% foetal calf serum, 1% non-essential amino acids and 1% penicillin-streptomycin. All cells were incubated in a 5% CO2 incubator at 37 °C. Doxorubicin chloride was used as positive control while 10% DMSO used in dissolving the test samples was used as the negative control. The 3-(4,5-dimethylthiazol)-2,5-diphenyl tetrazolium bromide (MTT) assay described by Mosmann with modification by McGaw et al. was used to determine the cytotoxicity of the test samples. The lethal concentration (LC50) value was calculated as the concentration of tested sample resulting in a 50% reduction of absorbance compared to untreated cells. Selectivity index (SI) values were calculated against the MIC using the formula: […]

Values after ≈ are worked out from the molar mass of the structure shown. Like-named read-outs stand apart in the source and are kept apart here.

Take `COc1ccc(C2CC(=O)c3c(OC)cc(OC)cc3O2)cc1` (racemic) [Compound 2, (±)-4′,5,7-trimethoxy flavanone]: the MIC worked out at 50 ± 40 µg/mL (≈ 159 µM) in test [1]; 16 µg/mL (≈ 50.9 µM) in [3] (48 h, 48 h); 125 µg/mL (≈ 398 µM) in test [3] (72 h, 72 h); 31 µg/mL (≈ 98.6 µM) in test [4]; 31 µg/mL (≈ 98.6 µM) in [5]; 125 µg/mL (≈ 398 µM) in test [6]. Further, the MIC in test [7] (48 h) is 16 µg/mL (≈ 50.9 µM); in [7] (72 h) it was 125 µg/mL (≈ 398 µM); in [7] (120 h) it was over 2500 µg/mL; in test [8] it was 31 µg/mL (≈ 98.6 µM); in test [9], 31 µg/mL (≈ 98.6 µM). Also, the “Mean MIC” value in [1] stood at 50 µg/mL. Besides, the “Biofilm inhibition (verdict in words)” value in test [2] was “good and good activity and good inhibitory activity”. Also, the “Selectivity index (LC50/MIC)” value in the test with Vero monkey kidney cells (C. neoformans 48 h) was determined as 12.625; with Vero monkey kidney cells (C. neoformans 72 h), 1.616; with Vero monkey kidney cells (E. coli (1)), 6.515; in the test with Vero monkey kidney cells (E. coli (2)) it was 6.452; in the test with Vero monkey kidney cells (E. coli (3)) it was 6.452; in the test with Vero monkey kidney cells (K. pneumoniae), 1.616. For the same molecule, in the test on Vero monkey kidney cells (S. aureus), the “Selectivity index (LC50/MIC)” value was found to be 6.516.
Turning to `COc1ccc(-c2oc3cc(OC)cc(O)c3c(=O)c2OC)cc1` [Compound 3, 5-hydroxy-3,7,4′-trimethoxyflavone], the MIC in test [1] was 140 µg/mL (≈ 426 µM); in test [3] (48 h, 48 h), over 250 µg/mL; in [3] (72 h, 72 h), over 250 µg/mL; in [4] it was 250 µg/mL (≈ 761 µM); in test [5], 16 µg/mL (≈ 48.7 µM); in test [6], 125 µg/mL (≈ 381 µM). The MIC in [7] (48 h) was 31 µg/mL (≈ 94.4 µM); in test [7] (72 h), 250 µg/mL (≈ 761 µM); in test [7] (120 h), over 2500 µg/mL; in test [8], 250 µg/mL (≈ 761 µM); in test [9], 63 µg/mL (≈ 192 µM). Moreover, the “Biofilm inhibition (verdict in words)” value in [2] was “good and good activity and good inhibitory activity”. Further, the “Selectivity index (LC50/MIC)” value in the test with Vero monkey kidney cells (A. fumigatus 48 h) was determined as 6.355; in the test on Vero monkey kidney cells (E. coli (1)), 3.127; in the test on Vero monkey kidney cells (E. coli (2)) it was 0.788; in the test with Vero monkey kidney cells (E. coli (3)), 0.788; in the test with Vero monkey kidney cells (K. pneumoniae) it was 1.576; with Vero monkey kidney cells (S. aureus) it was 12.313.
